# Experimental data: patent US11331289B2, “Antimicrobial composition” (priority 2017, dated 2022)
# Where two headings read alike, the source gives them in different places.
# What was measured:
# Malassezia pachydermatis = assay: MIC, microdilution broth method; format: cell-based; conditions: for MIC: Malassezia pachydermatis, read-out: MIC
# Description: Six clinical isolates from dog skin (n=5) and cats (n=1) which had been sent to EnvA (mycology laboratory of BioPôle Alfort) for mycological culture. The isolates, collected in March 2016, were identified as belonging to the species Malassezia pachydermatis. They were maintained by regular transplanting on medium of Sabouraud. Isolates are subcultured 2 to 3 days prior to testing sensitivity.
# A stock solution of Oxyclozanide at 1600 μg/mL is prepared in DMSO. The stock solution is then diluted in DMSO to obtain a concentration range of 3.125 μg/ml to 800 μg/ml. A 1/50 dilution of this range and of the stock solution is then carried out in ultrapure water so as to obtain a concentration range of 0.0625 μg/ml to 32 μg/ml and containing 2% of DMSO. 50 μl of these solutions are deposited in wells of a microplate and then 50 μl of inoculum calibrated at 10^6 CFU/ml in Sabouraud/Tween 40 (2%) are added. A range of tested concentrations ranges from 0.0312 μg/mL to 16 μg/mL. The final concentration of DMSO in contact with the inoculum is 1%. The same dilution and seeding protocol was followed with a stock solution of amphotericin B at 1600 μg/ml. A “placebo” (or yeast growth control) column is systematically included in the plates. The plates are incubated at 37 ° C. The reading is done at 24 and 48 h. Several trials were conducted and protocol adjustments were required. In particular, the concentration of the inoculum had to be reduced for antifungal activity to be observed.
# MRSP 16125 = assay: Time-killing curve, inoculum 5.10^5 CFU/ml (MIC 0.5 μg/ml); format: cell-based, Staphylococcus pseudintermedius
# Description: The objective of this study is to assess in vitro the time-killing curves of oxyclozanide against four strains of Methicillin-Resistant Staphylococcus from dogs.
# Two Methicillin-Resistant Staphylococcus aureus (MRSA) and two Methicillin-Resistant Staphylococcus pseudintermedius (MRSP) isolated from the clinics have been tested.
# The assessment of time-killing curves has been realized by a broth macrodilution method (Mueller-Hinton II Broth).
# Oxyclozanide is diluted in (DMSO) into sterile tubes in order to obtain the following concentrations from 800 to 6.25 μg/ml. Those concentrations and stock standard solution are then diluted (1/10) in Mueller-Hinton II Broth in order to obtain the following concentrations from […] (See Table 2).
# Each operation is performed under sterile conditions. Each working standard solution (10*the final active ingredient concentration) is distributed in tubes (1 ml, for a final volume of 10 ml after addition of 9 ml of inoculum). One tube without active ingredient is used as growth control (Concentration=0).
# Bacterial isolates are sub-cultured from one cryobead on Columbia agar supplemented with 5% of blood. Pure cultures are incubated during 18-24 hours at 37° C. Three to five isolated colonies of similar appearance are selected from a previous culture and transferred into tubes containing 9 ml of Mueller-Hinton II Broth. The broth is incubated during 12-18 hours at 37° C. 0.5 to 1 ml of this broth is inoculated to another Mueller-Hinton II Broth 9 ml tube which is incubated during 3 to 4 hours at 37° C. to reach the exponential growth phase. The bacterial inoculum grown exponential phase is suspended to an optical density of McFarland standard scale 0.5 equivalent to a bacterial density of 10^8 CFU/ml and then adjusted to a concentration of about 5.10^5 CFU/ml as indicated by the guideline CLSI M26-A and to a second inoculum tested: 10^6 CFU/ml.
# 9 ml of bacterial inoculum grown to exponential phase is added to 1 ml of active ingredient (or Mueller Hinton II Broth for the growth control). Tubes are incubated at 35° C. during 24 hours.
# At times 0, 2, 4, 6 and 24 hours, 100 μl of broth of each tube is sampled and diluted in microplates:
# Each well is re-cultured by streaking 10 μl on Columbia agar supplemented with 5% of blood. Plates are incubated at 37° C. during 18-24 hours incubation. Thus, residual bacterial concentrations are determined (CFU/ml). Results are expressed in log10 values of CFU/ml over-time in broth. Due to the procedure used, the minimal bacterial concentration that can be assessed is 10^2 CFU/ml.
structure (smiles),measurement,setting,value
O=C(Nc1cc(Cl)cc(Cl)c1O)c1c(O)c(Cl)cc(Cl)c1Cl [Oxyclozanide],MIC,"Malassezia pachydermatis; Isolate 1, Assay 1, 10^6 CFU/ml",8 µg/mL
same,MIC,"Malassezia pachydermatis; Isolate 1, Assay 2, 10^6 CFU/ml",4 µg/mL
same,MIC,"Malassezia pachydermatis; Isolate 2, Assay 1, 10^6 CFU/ml",8 µg/mL
same,MIC,"Malassezia pachydermatis; Isolate 2, Assay 2, 10^6 CFU/ml",8 µg/mL
same,MIC,"Malassezia pachydermatis; Isolate 3, Assay 1, 10^6 CFU/ml",8 µg/mL
same,MIC,"Malassezia pachydermatis; Isolate 3, Assay 2, 10^6 CFU/ml",16 µg/mL
same,MIC,"Malassezia pachydermatis; Isolate 4, Assay 1, 10^6 CFU/ml",> 16 µg/mL
same,MIC,"Malassezia pachydermatis; Isolate 4, Assay 2, 10^6 CFU/ml",> 16 µg/mL
same,MIC,"Malassezia pachydermatis; Isolate 5, Assay 1, 10^6 CFU/ml",8 µg/mL
same,MIC,"Malassezia pachydermatis; Isolate 5, Assay 2, 10^6 CFU/ml",8 µg/mL
same,MIC,"Malassezia pachydermatis; Isolate 6, Assay 1, 10^6 CFU/ml",8 µg/mL
same,MIC,"Malassezia pachydermatis; Isolate 6, Assay 2, 10^6 CFU/ml",16 µg/mL
same,Activity with respect to Malassezia pachydermatis,Malassezia pachydermatis; isolate 3,no activity
same,Activity with respect to Malassezia pachydermatis,Malassezia pachydermatis; six clinical isolates,active
same,Counting results,"MRSP 16125; 1 MIC, 0 h",4.000E+05 CFU/ml
same,Counting results,"MRSP 16125; 1 MIC, 2 h",2.600E+04 CFU/ml
same,Counting results,"MRSP 16125; 1 MIC, 4 h",1.900E+04 CFU/ml
same,Counting results,"MRSP 16125; 1 MIC, 6 h",1.300E+04 CFU/ml
same,Counting results,"MRSP 16125; 1 MIC, 24 h",6.000E+05 CFU/ml
same,Counting results,"MRSP 16125; 2 MIC, 0 h",4.000E+05 CFU/ml
same,Counting results,"MRSP 16125; 2 MIC, 2 h",1.000E+02 CFU/ml
same,Counting results,"MRSP 16125; 2 MIC, 4 h",3.000E+02 CFU/ml
same,Counting results,"MRSP 16125; 2 MIC, 6 h",1.000E+02 CFU/ml
same,Counting results,"MRSP 16125; 2 MIC, 24 h",2.000E+02 CFU/ml
same,Counting results,"MRSP 16125; 4 MIC, 0 h",4.000E+05 CFU/ml
same,Counting results,"MRSP 16125; 4 MIC, 2 h",1.000E+02 CFU/ml
same,Counting results,"MRSP 16125; 4 MIC, 4 h",1.000E+02 CFU/ml
same,Counting results,"MRSP 16125; 4 MIC, 6 h",1.000E+02 CFU/ml
same,Counting results,"MRSP 16125; 4 MIC, 24 h",1.000E+02 CFU/ml
same,Counting results,"MRSP 16125; 8 MIC, 0 h",4.000E+05 CFU/ml
same,Counting results,"MRSP 16125; 8 MIC, 2 h",1.000E+02 CFU/ml
same,Counting results,"MRSP 16125; 8 MIC, 4 h",1.000E+02 CFU/ml
same,Counting results,"MRSP 16125; 8 MIC, 6 h",1.000E+02 CFU/ml
same,Counting results,"MRSP 16125; 8 MIC, 24 h",1.000E+02 CFU/ml
same,Counting results,"MRSP 16125; 16 MIC, 0 h",4.000E+05 CFU/ml
same,Counting results,"MRSP 16125; 16 MIC, 2 h",1.000E+02 CFU/ml
same,Counting results,"MRSP 16125; 16 MIC, 4 h",1.000E+02 CFU/ml
same,Counting results,"MRSP 16125; 16 MIC, 6 h",1.000E+02 CFU/ml
same,Counting results,"MRSP 16125; 16 MIC, 24 h",1.000E+02 CFU/ml
same,Time to obtain bactericidal effect at 4 MIC,"MRSP 16125; 16125/5.10^5 CFU/ml, >=3 log10 decrease in CFU",2 h
same,Counting results,"MRSP 16125; ¼ MIC, 0 h",4.000E+05 CFU/ml
same,Counting results,"MRSP 16125; ¼ MIC, 2 h",5.500E+05 CFU/ml
same,Counting results,"MRSP 16125; ¼ MIC, 4 h",2.600E+06 CFU/ml
same,Counting results,"MRSP 16125; ¼ MIC, 6 h",1.600E+07 CFU/ml
same,Counting results,"MRSP 16125; ¼ MIC, 24 h",4.900E+10 CFU/ml
same,Counting results,"MRSP 16125; ½ MIC, 0 h",4.000E+05 CFU/ml
same,Counting results,"MRSP 16125; ½ MIC, 2 h",3.800E+05 CFU/ml
same,Counting results,"MRSP 16125; ½ MIC, 4 h",3.100E+05 CFU/ml
same,Counting results,"MRSP 16125; ½ MIC, 6 h",3.400E+05 CFU/ml
same,Counting results,"MRSP 16125; ½ MIC, 24 h",3.200E+08 CFU/ml
